Measured values: patent publication US8258309B2, “Azapeptide derivatives” (priority 2007, dated 2012)

Columns and labels:
[1] = Microsomal assay: stability in human liver microsomes; format: in vitro ADME; settings: human, liver microsomes, pH 7.4, human liver microsomes, repeated assay (Table 3); read-out: t1/2 (min) Avg ± SD (n = 3)
Protocol: Microsomal Assay. Human liver microsomes (20 mg/mL, pool of 50 individuals) were obtained from Xenotech LLC (Lenexa, Kans.). The incubation mixtures are prepared as follows. Stock solutions (10 mM) solutions of test Compounds 103, 106, 122 and of atazanavir were prepared in DMSO. The 10 mM stock solutions were diluted to 1 mM in acetonitrile (ACN). […] The microsome-test compound mixtures were added to wells of a 2 mL 96-well deep well polypropylene plate in triplicate. The plate was warmed to 37° C. before initiating the reactions by addition of prewarmed NADPH in 0.1 M potassium phosphate buffer, pH 7.4, containing 3 mM MgCl2. The final reaction mixture composition contained: • Liver Microsomes 0.5 mg/mL • NADPH 2 mM • Potassium Phosphate, pH 7.4 100 mM • Magnesium Chloride 3 mM • Test Compound 1.0 μM. The reaction mixtures were incubated at 37° C. and 50 μL aliquots were removed at 0, 3, 7, 12, 20, and 30 minutes and added to shallow-well 96-well plates which contained 50 μL of ice-cold ACN with internal standard to stop the reactions. The plates were stored at −20° C. for 30 minutes, after which 100 μL of water was added to the wells of the plate before centrifugation to pellet precipitated proteins. Supernatants were transferred to another 96-well plate and analyzed for amounts of parent remaining by LC-MS/MS using an Applied Biosystems API 4000 mass spectrometer. […] Data analysis was performed using Microsoft Excel Software. […] The results are shown in FIGS. 2 and 3 and in Table 3, below: […]

[2] = Chimp pharmacokinetics Run A, IV or PO co-dosing of atazanavir and Compounds 114, 120, 122; format: in vivo, chimpanzee; settings: for concentration at 24 h: concentration detected intact in urine
Protocol: Chimp Pharmacokineties. Run A: A 4 mg/mL solution of atazanavir and each of Compounds 114, 120 and 122 were prepared in 10% DMI (dimethyl isosorbide), 15% EtOH, 35% PG in D5W. Specifically, for each compound, 240 mgs of compound was dissolved in a solution composed of 6 mL of DMI, 9 mL of EtOH and 21 mL PG. Once the compound was fully dissolved, 24 mL of D5W was added and the solution mixed.
Fifty-five mL of each drug solution is then combined and the mixture was sterile filtered using a 0.2 μm filter. This produced 220 mL of a 1:1:1:1 mixture atazanavir:Compound 114:Compound 120:Compound 122. The final concentration of each drug in the solution was 1 mg/mL. Each animal received 50 mL of this solution through either IV or PO routes.
(§1) Four chimps (two male and two female) were used in this study and were fasted overnight prior to administration of the compound solution. Animals were sedated with ketamine and/or telazol prior to dosing. Intravenous dosing was achieved by IV infusion over 30 minutes.
(§2) Approximately 4.5 mL of blood was collected into vacutainer tubes with sodium heparin as an anticoagulant at 0 (preinfusion), 15 min., 29.5 min (immediately before the end of the infusion), and then at 6, 15, 30, and 45 minutes, and 1, 2, 4, 6, 8, 10, 12, 24 hours after the infusion is stopped. A similar procedure was used to collect blood after oral dosing with samples taken at 0 (predose), 15, and 30 minutes, and at 1, 1.5, 2, 4, 6, 8, 10, 12, 24 hours postdose. Following sample collection, the vacutainer tubes were rocked by hand several times to insure adequate mixing. Blood samples were placed immediately on wet ice and centrifuged within 1 hour from time of collection. Following centrifugation, the resulting plasma was stored frozen at −70° C. until analysis. The results are summarized in FIGS. 4 and 5 and tables 6 and 7.

in vivo = settings: chimpanzee, po; for concentration detected intact in urine: 24 h; for concentration at 24 h: concentration detected intact in urine
Protocol: as §1, §2
Run B: Same as Run A, except the dose was 150 mg orally of each of atazanavir and compounds 114 and 120, and the vehicle was 10 percent ethanol, 40 percent polypropylglycol in 2.5 percent citric acid.

HIV-1RF = assay: HIV anti-viral activity in CEM-SS cells infected with HIV-1 (XTT); format: cell-based; settings: for EC50: Human immunodeficiency virus 1, CEM-SS
Protocol: The HIV antiviral activity of compound of the present invention was tested in CEM-SS cells infected with HIV-1. CEM-SS cells were passaged in T-75 flasks in RPMI 1640 medium supplemented with 10% heat inactivated fetal bovine serum, 2 mmol/L L-glutamine, 100 U/mL penicillin and 100 flg/mL streptomycin prior to use in the antiviral assay. On the day preceding the assay, the cells were split 1:2 to assure they were in an exponential growth phase at the time of infection. Total cell and viability quantification was performed using a hemocytometer and Trypan Blue dye exclusion. Cell viability was greater than 95% for the cells to be utilized in the assay. The cells were resuspended at 5×10^4 cells per mL in tissue culture medium and added to the drug-containing microtiter plates in a volume of 50 μL.
The virus used for the assay was the lymphocyte-tropic virus strain HIV-IRF. The virus was obtained from the NIH AIDS Research and Reference Reagent Program and stock virus pools were produced in CEM-SS cells. A pre-titered aliquot of virus was removed from the freezer (−80° C.) and allowed to thaw slowly to room temperature in a biological safety cabinet. Virus was resuspended and diluted into tissue culture medium such that the amount of virus added to each well in a volume of 50 μL was the amount determined to yield 85 to 95% cell killing at 6 days post-infection.
Each plate contains cell control wells (cells only), virus control wells (cells plus virus), compound toxicity wells (cells plus compound only), compound colorimetric control wells (compound only) as well as experimental wells (compound plus cells plus virus). Samples were tested in triplicate with eleven half-log dilutions per compound starting at 0.1 μM of compound. Compounds 104, 120 and 122 were tested, as was atazanavir and AZT. […]
Following incubation at 37° C. in a 5% CO2 incubator, the test plates were stained with the tetrazolium dye XTT (2,3-bis(2-methoxy-4-nitro-5sulfophenyl)-5-[(phenylamino)carbonyl]-2H-tetrazolium hydroxide). XTT-tetrazolium was metabolized by the mitochondrial enzymes of metabolically active cells to a soluble formazan product, allowing rapid quantitative analysis of the inhibition of HIV induced cell killing by anti-HIV test substances. XTT solution was prepared daily as a stock of 1 mg/mL in RPMI 1640. Phenazine methosulfate (PMS) solution was prepared at 0.15 mg/mL in PBS and stored in the dark at −20° C. XTT/PMS stock was prepared immediately before use by adding 40 μL of PMS per mL of XTT solution. Fifty microliters of XTT/PMS was added to each well of the plate and the plate was reincubated for 4 hours at 37° C. Plates were sealed with adhesive plate sealers and shaken gently or inverted several times to mix the soluble formazan product and the plate was read spectrophotometrically at 450/650 nm with a Molecular Devices Vmax plate reader.
Raw data was collected from the Softmax Pro 4.6 software and imported into a Microsoft Excel 2003 spreadsheet for analysis by linear curve fit calculations.

[3] = chimp A242E, PO, 24 hours, Run A
[4] = chimp A336C, IV, 24 hours, Run A

Compound	half-life at 1 μM [1] [min]	Ratio of urine concentration, compound:Atazanavir [2, 3]	Ratio of urine concentration, compound:Atazanavir [2, 4]	Ratio of urine concentration, compound:Atazanavir ([2]; chimpanzee, in vivo, iv, 24 h)	concentration detected intact in urine ([2]; chimpanzee, in vivo, iv, 24 h) [ng/mL]	concentration at 24 h ([2]; chimpanzee, in vivo, iv) [ng/mL]	Ratio of urine concentration, compound:Atazanavir ([2]; chimpanzee, in vivo, po, 24 h)	concentration detected intact in urine ([2]; chimpanzee, in vivo, po, 24 h) [ng/mL]	concentration at 24 h ([2]; chimpanzee, in vivo, po) [ng/mL]	concentration detected intact in urine (in vivo) [ng/mL]	concentration at 24 h (in vivo) [ng/mL]	fold less potent in the presence of HSA than in cell culture medium alone (HIV-1RF; 10 mg/mL HSA versus cell culture medium)	EC50 (HIV-1RF; +0.5 mg/mL AAGP) [nM]	EC50 (HIV-1RF; +10 mg/mL HAS) [nM]	EC50 (HIV-1RF; +AAGP + HSA) [nM]	EC50 (HIV-1RF; No Serum Protein Added (cell culture medium)) [nM]
[2H]C([2H])([2H])OC(=O)N[C@H](C(=O)NN(Cc1ccc(-c2ccccn2)cc1)C[C@H](O)[C@H](Cc1ccccc1)NC(=O)[C@@H](NC(=O)OC([2H])([2H])[2H])C(C([2H])([2H])[2H])(C([2H])([2H])[2H])C([2H])([2H])[2H])C(C)(C)C [Compound 120, 1,14-Di(methyl-d3)(3S,8S,9S,125)-3-(1,1-dimethylethyl)-12-[(1,1-dimethylethyl)-d9]-8-hydroxy-4,11-dioxo-9-(phenlymethyl)-6-[[4-(2-pyridinyl)phenyl]methyl]-2,5,6,10,13-pentaazatetradecanedioate]	26.9 ± 1.4	2.16	1.74	1.52	3110	3030	2.15	1110	1230	5030	2930	two- to greater than three-fold less potent	3	1	4	0.5
[2H]C([2H])([2H])OC(=O)N[C@H](C(=O)N[C@@H](Cc1ccccc1)[C@@H](O)CN(Cc1ccc(-c2ccccn2)cc1)NC(=O)[C@@H](NC(=O)OC)C(C)(C)C)C(C([2H])([2H])[2H])(C([2H])([2H])[2H])C([2H])([2H])[2H] [Compound 114, 1-Methyl-14-(methyl-d3)(3S,8S,9S,12S)-3-(1,1-dimethylethyl)-12-[(1,1-dimethylethyl)-d9]-8-hydroxy-4,11-dioxo-9-(phenylmethyl)-6-[[4-(2-pyridinyl)phenyl]methyl]-2,5,6,10,13-pentaazatetradecanedioate]	31.5 ± 0.8	1.8	1.5	1.3	2820	2750	1.8	963	1070	4580	2530	–	–	–	–	–
